Several values for one entry are separate records, joined by “and”; a condition that tells them apart may be missing. Identical values can stand only once.
Experiments:
PARP2 [1] = target: T1, PARP2 (Mus musculus, UniProt O88554); assay: Tryptophan fluorescence spectroscopy of PARP2 with Zn2+; type: binding; design: Recombinant mouse full-length PARP2 was obtained in the baculovirus expression system; made in house; host or cells: Sf9 insect cells (baculovirus); gift of Prof; O. Lavrik; details: PARP2 0.5 µM, Zn2+ 377 µM
Procedure: (§1) Fluorescence spectra of Trp residues were measured in the 300–450 nm spectral range at the 270 nm excitation wavelengths using the Cary Eclipse spectrofluorometer (Varian/Agilent, USA).
Fluorescence of PARP2 was measured at 0.5 µM in a buffer containing 7% glycerin, 33 µM HEPES (pH 8.0), 75 mM NaCl, 89 µM EDTA, 27 µM ZnCl2, 1.5 µM TCEP. A solution of PARP2 was complemented with ZnCl2 to 377 µM.

WGR domain of PARP2 [2] = target: T2, WGR domain of PARP2 (Homo sapiens, UniProt Q9UGN5); assay: Circular dichroism spectroscopy of the WGR domain (BeStSel secondary structure analysis); design: content of a-helix in the WGR domain / content of b-sheet in the WGR domain / content of turn in the WGR domain / content of random coil in the WGR domain: unit not given here
T2 construct: WGR domain of PARP2 (residues 77–220) into pET-15b-TEV expression vector; 6xHis (pET-15b-TEV) (N, cleaved yes); made in house; host or cells: Escherichia coli Rosetta2 (DE3) pLysS
Procedure: CD spectra of proteins were recorded within the 190-250 nm spectral range with 0.2 nm step using Jasco-810 spectrophotometer (Jasco, Japan) and the quartz […]® cuvette of 0.1 mm thickness (Hellma, Germany. Secondary structure analysis was performed using BeStSel webserver. To improve the reliability of the analysis, the content of canonical secondary structures of various types was predicted for 3-6 independent measurements, and the values were averaged. The statistical significance of the secondary structure difference was determined using the multiple t-test.

PARP2 [3] = target: T1, PARP2; assay: Western blot analysis of NAD+-dependent PARylation by PARP2 in PARP2-nucleosome complexes; type: biochemical; design: Recombinant mouse full-length PARP2 was obtained in the baculovirus expression system; made in house; host or cells: PARP2: Sf9 insect cells (baculovirus), gift of Prof; O. Lavrik; nucleosomes assembled in house; details: Mg2+ 5 mM or Zn2+ 0.3 mM; PARP2 100 nM, nucleosomes 3 nM, NAD+ 0-5 µM
Procedure: Probes were subjected to electrophoresis in 4–12% bis-Tris gradient gel in the NuPAGE™ MES SDS Running Buffer at 130 V. […] The membrane was incubated for 60 min in the PBS-T solution supplemented with the 5% skimmed milk. Then the membrane was incubated with mouse monoclonal antibodies 10 H followed by incubation with the secondary anti-mouse antibodies conjugated with horseradish peroxidase (Bio-Rad, Hercules, CA, USA). The washing procedure was carried out after each step of incubation. Immunodetection was performed using the Super Signal West Pico Chemiluminescent Substrate (Thermo Fisher Scientific, Waltham, MA, USA) for 3 min. The Western blot experiments were performed in three independent repetitions.

WGR domain of PARP2 [4] = target: T2, WGR domain of PARP2; assay: Tryptophan fluorescence spectroscopy of the WGR domain titrated with divalent cations (one site binding fit); details: for fluorescence intensity (Fig 3d): listed as Zn
Procedure: as §1
Fluorescence of WGR domain was measured at 0.5 or 5 µM in a buffer containing 10 mM HEPES (pH 8.0), 150 mM NaCl and 0.73 or 7.3 µM EDTA, respectively. Solutions were complemented with ZnCl2 (0.2–308 µM) or MgCl2 (15–5000 µM), or CaCl2 (8–5000 µM) dissolved in a buffer containing 10 mM HEPES (pH 8.0), 150 mM NaCl. Intensity of the measured spectra was corrected for the concomitant dilution of the WGR domain. Integral intensities (Ifl.) of fluorescence spectra were averaged over three independent measurements (mean ± SEM) and used to plot the corresponding Ifl. vs. ion concentration graphs. Data were fitted with the one site binding equation:2 [drawing 2]
Where C is the concentration of divalent cations, Kd is a dissociation constant of the complex, Im and Ifl0 are maximal and initial values of Ifl., respectively.

[5] = 0.5 mM ion, independent measurements

T2 sequence (Q9UGN5 77-220): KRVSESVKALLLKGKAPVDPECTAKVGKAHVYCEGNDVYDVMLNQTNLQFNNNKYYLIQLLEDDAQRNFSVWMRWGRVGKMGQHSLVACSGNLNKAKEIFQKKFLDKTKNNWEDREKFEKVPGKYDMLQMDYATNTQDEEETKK

intensity of fluorescence spectrum of tryptophan residues of PARP2 after addition of ions (PARP2 [1]): increased | effect of ions on the structure of the WGR domain (CD) (WGR domain of PARP2 [2]): significantly changes | content of b-sheet in the WGR domain (WGR domain of PARP2 [2]; [5]): 26.6 and 28 and 25.5 and 34.1 and 29.7 | content of random coil in the WGR domain (WGR domain of PARP2 [2]; [5]): 48.2 and 46 and 53.4 and 46.2 | content of turn in the WGR domain (WGR domain of PARP2 [2]; [5]): 15.4 and 13.9 and 14.7 and 15.1 and 13.3 | effect of ions on efficiency of PARP2-mediated PARylation (PARP2 [3]): decrease | Zn2+ concentration at which changes in the fluorescence of Trp residues of the WGR domain were observed (WGR domain of PARP2 [4]; Figure S4): 0.4 to 5 µM | Kd (WGR domain of PARP2 [4]; Trp fluorescence, one site binding fit, 10 mM HEPES pH 8.0, 150 mM NaCl, residual EDTA present, read-out: dissociation constant of the divalent cation-WGR domain complex): 2 µM and ~2 µM | effect of ions on intensity of tryptophan fluorescence of the WGR domain (WGR domain of PARP2 [4]; WGR domain 5 µM): considerably increased | fluorescence intensity (Fig 3d) (WGR domain of PARP2 [4]; wavelength 330.000, 5.9 uM Zn): 64.607 and 70.927 and 88.925 and 69.072 | fluorescence intensity (Fig 3d) (WGR domain of PARP2 [4]; wavelength 330.000, 303 uM + 7 mM EDTA): 42.022 and 51.928 and 42.125 and 50.264 | fluorescence intensity (Fig 3d) (WGR domain of PARP2 [4]; wavelength 331.070, 5.9 uM Zn): 65.518 and 73.717 and 91.313 and 71.214 | fluorescence intensity (Fig 3d) (WGR domain of PARP2 [4]; wavelength 331.070, 303 uM + 7 mM EDTA): 42.915 and 54.693 and 43.072 and 51.479 | fluorescence intensity (Fig 3d) (WGR domain of PARP2 [4]; wavelength 332.000, 5.9 uM Zn): 66.418 and 75.386 and 92.296 and 72.347 | fluorescence intensity (Fig 3d) (WGR domain of PARP2 [4]; wavelength 332.000, 303 uM + 7 mM EDTA): 43.600 and 54.088 and 43.890 and 52.288 | fluorescence intensity (Fig 3d) (WGR domain of PARP2 [4]; wavelength 333.070, 5.9 uM Zn): 68.103 and 76.819 and 93.790 and 71.930 | fluorescence intensity (Fig 3d) (WGR domain of PARP2 [4]; wavelength 333.070, 303 uM + 7 mM EDTA): 43.562 and 54.895 and 44.695 and 52.661 | fluorescence intensity (Fig 3d) (WGR domain of PARP2 [4]; wavelength 334.000, 5.9 uM Zn): 68.621 and 78.226 | fluorescence intensity (Fig 3d) (WGR domain of PARP2 [4]; wavelength 334.000, 11.6 uM Zn): 126.789 and 111.115
SMILES: [Cl-].[Cl-].[Zn+2] [Zn2+, ZnCl2]
fluorescence intensity (Fig 3d) (WGR domain of PARP2 [4]; wavelength 330.000, 11.6 uM Zn): 118.714 and 102.531 and 101.352 and 109.279 | fluorescence intensity (Fig 3d) (WGR domain of PARP2 [4]; wavelength 330.000, 17.2 uM): 125.078 and 114.327 and 116.086 and 114.151 | fluorescence intensity (Fig 3d) (WGR domain of PARP2 [4]; wavelength 330.000, 22.1 uM): 125.812 and 115.097 and 117.722 and 114.227 | fluorescence intensity (Fig 3d) (WGR domain of PARP2 [4]; wavelength 330.000, 308 uM): 125.859 and 119.818 and 119.168 and 117.804 | fluorescence intensity (Fig 3d) (WGR domain of PARP2 [4]; wavelength 331.070, 11.6 uM Zn): 121.141 and 105.018 and 103.680 and 111.886 | fluorescence intensity (Fig 3d) (WGR domain of PARP2 [4]; wavelength 331.070, 17.2 uM): 128.785 and 116.958 and 116.866 and 116.180 | fluorescence intensity (Fig 3d) (WGR domain of PARP2 [4]; wavelength 331.070, 22.1 uM): 127.402 and 115.749 and 117.457 and 117.342 | fluorescence intensity (Fig 3d) (WGR domain of PARP2 [4]; wavelength 331.070, 308 uM): 129.366 and 122.539 and 123.005 and 119.729 | fluorescence intensity (Fig 3d) (WGR domain of PARP2 [4]; wavelength 332.000, 11.6 uM Zn): 123.485 and 106.394 and 106.147 and 113.513 | fluorescence intensity (Fig 3d) (WGR domain of PARP2 [4]; wavelength 332.000, 17.2 uM): 128.874 and 118.064 and 118.851 and 118.214 | fluorescence intensity (Fig 3d) (WGR domain of PARP2 [4]; wavelength 332.000, 22.1 uM): 131.124 and 117.614 and 119.985 and 119.070 | fluorescence intensity (Fig 3d) (WGR domain of PARP2 [4]; wavelength 332.000, 308 uM): 130.593 and 122.360 and 123.201 and 121.123 | fluorescence intensity (Fig 3d) (WGR domain of PARP2 [4]; wavelength 333.070, 11.6 uM Zn): 125.333 and 108.991 and 107.827 and 116.743 | fluorescence intensity (Fig 3d) (WGR domain of PARP2 [4]; wavelength 333.070, 17.2 uM): 132.720 and 120.694 and 121.118 and 119.035 | fluorescence intensity (Fig 3d) (WGR domain of PARP2 [4]; wavelength 333.070, 22.1 uM): 132.619 and 121.520 and 120.252 and 122.459 | fluorescence intensity (Fig 3d) (WGR domain of PARP2 [4]; wavelength 333.070, 308 uM): 133.279 and 127.119 and 125.798 and 122.486
